The values that follow come from US5354862A, “Preparation and the use of halopropargylated cyclic quaternary ammonium compounds as antimicrobial agents” (Rohm and Haas Company, priority 1993, dated 1994).

Read-outs that look alike come from different tables or passages of the source.

Assay in all cases: Broth two-fold serial dilution MIC test
Test [1] concerns Pseudomonas aeruginosa. The class given is cell-based, Pseudomonas aeruginosa (ATCC 15442). To be noted: Psae. The text has this:
(§1) A minimum inhibitory concentration (MIC) value is obtained using a broth, two-fold serial dilution test performed as follows: A stock solution or dispersion of the test compound, typically at a concentration of 1%, is made in a 5:3:2 solvent solution of acetone. methanol, and water. A volume of the stock solution is dispensed into culture media to give an initial starting test concentration of 500 ppm compound.
(§2) When the test is ready to be done, each vessel in the dilution series, except the first vessel, contains an equal volume of compound free broth. The first vessel contains twice the volume of broth with the starting concentration of test compound. One half of the broth from the first vessel is transferred to the second vessel- After being mixed, one half the resulting volume is removed from the second vessel and transferred to the third vessel. The entire cycle is repeated sufficiently to give a series of concentrations amounting to 500, 250, 125, 63, 31, 16, 8, and 4, 2, 1, 0.5, 0.25 ppm respectively.
(§3) Each vessel is then inoculated with a cell suspension of the appropriate test organism. Bacteria are grown in broth, fungi on agar slants for a time and at a temperature appropriate to the species being tested, and algae are a mixture of green algae and blue-green bacteria grown in a nutrient media. At the end of the growth period, in the case of bacteria, the broth is vortexed to disperse the cells.
(§4) In the case of fungi, the spores are harvested by pipetting water onto the slant and dislodging the spores with a sterile loop. The cell/spore suspension is standardized by controlling incubation time, temperature, and the volume of the diluent. The suspension is then used to inoculate the vessels containing the broth compound.
(§5) The vessels are then incubated at the appropriate temperature. After the incubation, the vessels are examined for growth/no growth. The minimum inhibitory concentration (MIC) is defined as the lowest concentration of compound that results in complete inhibition of growth of the test organism.
1. Pseudomonas aeruginosa

Test [2] has as its system Escherichia coli. The class given is cell-based, Escherichia coli (ATCC 11229). To be noted: Ecol.
Excerpt: as §1, §2, §3, §4, §5

Test [3] deals with Staphylococcus aureus. The class given is cell-based, Staphylococcus aureus (ATCC 6538). The conditions noted are these: Saur.
Excerpt: as §1, §2, §3, §4, §5
2. Staphylococcus aureus

Test [4] deals with Aspergillus niger. The class given is cell-based, Aspergillus niger (ATCC 6275). The conditions noted are these: Anig, TSB media.
Excerpt: as §1, §2, §3, §4, §5
4. Aspergillus niger 6275 Anig

Setting [5] is: Pseudomonas aeruginosa, Table 2, M9G media, read-out: MIC.
[6] abbreviates: Pseudomonas aeruginosa, Table 2, TSB media, read-out: MIC.
Where [7] appears, read: Escherichia coli, Table 2, TSB media, read-out: MIC.
Setting [8] is: Staphylococcus aureus, Table 2, M9G media, read-out: MIC.
[9] abbreviates: Staphylococcus aureus, Table 2, TSB media, read-out: MIC.
[10] abbreviates: Aspergillus niger, Table 2, read-out: MIC.

Regarding `C[N+]1(CC#CI)CCCCC1` [Compound 17, 1-Methyl-1-(3-Iodopropargyl)-Piperidinium 4-Methylbenzenesulfonate], the MIC in test [1] (setting [5]) is 250 µg/mL; in test [1] (setting [6]), 125 µg/mL; in test [1] (Pseudomonas aeruginosa, Table 3 comparison, M9G media, read-out: MIC), 250 µg/mL; in test [1] (Pseudomonas aeruginosa, Table 3 comparison, TSB media, read-out: MIC), 125 µg/mL; in test [2] (setting [7]), 250 µg/mL; in test [2] (Escherichia coli, Table 3 comparison, TSB media, read-out: MIC), 250 µg/mL. Moreover, the MIC in test [3] (setting [8]) is 32 µg/mL; in test [3] (setting [9]), 32 µg/mL; in test [3] (Staphylococcus aureus, Table 3 comparison, M9G media, read-out: MIC) it was 32 µg/mL; in test [3] (Staphylococcus aureus, Table 3 comparison, TSB media, read-out: MIC), 32 µg/mL; in test [4] (setting [10]), 125 µg/mL; in test [4] (Aspergillus niger, Table 3 comparison, read-out: MIC) it was 125 µg/mL.

For the molecule `OCC[N+]1(CC#CI)CCCCC1` [Compound 18, 1-(2-hydroxyethyl)-1-(3-iodopropargyl)-piperidinium 4-methylbenzenesulfonate], the MIC in test [1] (setting [5]) was determined as 250 µg/mL; in test [1] (setting [6]) it was 125 µg/mL; in test [2] (setting [7]), 250 µg/mL; in test [3] (setting [8]) it was 16 µg/mL; in test [3] (setting [9]) it was 32 µg/mL; in test [4] (setting [10]) it was 250 µg/mL.

As for `OCCCCCCCCCCC[N+]1(CC#CI)CCCCC1` [Compound 19, 1-(11-hydroxyundecyl)-1-(3-iodopropargyl)-piperidinium 4-methylbenzenesulfonate], the MIC in test [1] (setting [5]) was found to be 250 µg/mL; in test [1] (setting [6]), 250 µg/mL; in test [2] (setting [7]), 32 µg/mL; in test [3] (setting [8]) it was 2 µg/mL; in test [3] (setting [9]), 16 µg/mL; in test [4] (setting [10]), 32 µg/mL.

With `OCCCCCCCCCCCC[N+]1(CC#CI)CCCCC1` [Compound 20, 1-(12-hydroxydodecyl)-1-(3-iodopropargyl)-piperidinium 4-methylbenzenesulfonate], the MIC in test [1] (setting [5]) was over 250 µg/mL; in test [1] (setting [6]) it was over 250 µg/mL; in test [2] (setting [7]) it was 250 µg/mL; in test [3] (setting [8]), 8 µg/mL; in test [3] (setting [9]), 63 µg/mL; in test [4] (setting [10]) it was 125 µg/mL.

`OCCCCCCCCC[N+]1(CC#CI)CCCCC1` [Compound 21, 1-(9-hydroxynonyl)-1-(3-iodopropargyl)-piperidinium 4-methylbenzenesulfonate]: the MIC in test [1] (setting [5]) is over 250 µg/mL; in test [1] (setting [6]), over 250 µg/mL; in test [2] (setting [7]), over 250 µg/mL; in test [3] (setting [8]), over 250 µg/mL; in test [3] (setting [9]) it was over 250 µg/mL; in test [4] (setting [10]) it was 63 µg/mL.

As for `CCOC(=O)CC[N+]1(CC#CI)CCCCC1` [Compound 22, 1-(2-ethoxycarbonylethyl)-1-(3-iodopropargyl)-piperidinium 4-methylbenzenesulfonate], the MIC is over 250 µg/mL in test [1] (setting [5]); over 250 µg/mL in test [1] (setting [6]); over 250 µg/mL in test [2] (setting [7]); over 250 µg/mL in test [3] (setting [8]); over 250 µg/mL in test [3] (setting [9]); 16 µg/mL in test [4] (setting [10]).

Turning to `OCCCCCCCC[N+]1(CC#CI)CCCCC1` [Compound 23, 1-(8-hydroxyoctyl)-1-(3-iodopropargyl)-1-piperidinium 4-methylbenzenesulfonate], the MIC in test [1] (setting [5]) is over 500 µg/mL; in test [1] (setting [6]) it was over 500 µg/mL; in test [2] (setting [7]) it was over 500 µg/mL; in test [3] (setting [8]), 63 µg/mL; in test [3] (setting [9]), 250 µg/mL; in test [4] (setting [10]) it was over 500 µg/mL.

For `OCCCCCCC[N+]1(CC#CI)CCCCC1` [Compound 24, 1-(7-hydroxyheptyl)-1-(3-iodopropargyl)-piperidinium-4methylbenzenesulfonate], the MIC in test [1] (setting [5]) is over 500 µg/mL; in test [1] (setting [6]), over 500 µg/mL; in test [2] (setting [7]) it was over 500 µg/mL; in test [3] (setting [8]) it was 63 µg/mL; in test [3] (setting [9]), 500 µg/mL; in test [4] (setting [10]) it was over 500 µg/mL.

Turning to `CCCCCCCCCCCCCCCC[N+]1(CC#CI)CCCCC1` [Compound 26, 1-(hexadecyl)-1-(3-iodopropargyl)-piperidinium 4-methylbenzenesulfonate], the MIC in test [1] (Table 2, M9G media) is listed as 4 ppm; in test [1] (Table 2, TSB media), 16 ppm; in test [2] (Table 2, M9G media) it was 4 ppm; in test [2] (Table 2, TSB media) it was 4 ppm; in test [3] (Table 2, M9G media) it was 0.25 ppm; in test [3] (Table 2, TSB media) it was 0.25 ppm. The MIC in test [4] (setting [10]) amounted to 16 µg/mL.

Turning to `OCCCCCCCCCCCC[N+]1(CC#CI)CCCCCC1` [Compound 27, 1-(12-hydroxydodecyl)-1-(3-iodopropargyl)-hexamethyleneiminium 4-methylbenzenesulfonate], the MIC in test [1] (setting [5]) is over 250 µg/mL; in test [1] (setting [6]) it was over 250 µg/mL; in test [2] (setting [7]), 250 µg/mL; in test [3] (setting [8]) it was 16 µg/mL; in test [3] (setting [9]), 32 µg/mL; in test [4] (setting [10]), 32 µg/mL.

In the case of `CCCCCCCCCCCCCC[N+]1(CC#CI)CCOCC1` [Compound 28, 4-tetradecyl-4-(3-iodopropargyl)-morpholinium 4-methylbenzenesulfonate], the MIC was found to be 4 ppm in test [1] (Table 2, M9G media); 4 ppm in test [1] (Table 2, TSB media); 1 ppm in test [2] (Table 2, M9G media); 2 ppm in test [2] (Table 2, TSB media); 0.25 µg/mL in test [3] (setting [8]); 0.25 ppm in test [3] (Table 2, TSB media). The molecule also displayed an MIC in test [4] (Table 2) of 8 ppm.

Regarding `C[N+]1(CC#CI)CCOCC1` [Compound 29, 4-methyl-4-(3-iodopropargl)-morpholinium 4-methylbenzenesulfonate], the MIC was found to be 500 µg/mL in test [1] (setting [5]); 500 µg/mL in test [1] (setting [6]); 250 µg/mL in test [2] (Escherichia coli, Table 2, M9G media, read-out: MIC); 125 µg/mL in test [2] (setting [7]); 500 µg/mL in test [3] (setting [8]); 500 µg/mL in test [3] (setting [9]). For the same molecule, the MIC in test [4] (setting [10]) is 500 µg/mL.

Regarding `CCCCCCCCCCCC[N+]1(CC#CI)CCCC1` [Compound 30, 1-dodecyl-1-(3-iodopropargyl)-pyrrolidinium benzenesulfonate], the MIC in test [1] (Table 2, M9G media) is 63 ppm; in test [1] (Table 2, TSB media), 63 ppm; in test [2] (Table 2, M9G media), 2 ppm; in test [2] (Table 2, TSB media), 16 ppm; in test [3] (Table 2, M9G media), 1 ppm; in test [3] (Table 2, TSB media), 1 ppm. Also, the MIC in test [4] (Table 2) was found to be 1 ppm.

As to `CCCCCCCCCCCCC[N+]1(CC#CI)CCCC1` [Compound 31, 1-tridecyl-1-(3-iodopropargyl)-pyrrolidinium benzenesulfonate], the MIC is on record as 32 ppm in test [1] (Table 2, M9G media); 32 ppm in test [1] (Table 2, TSB media); 1 ppm in test [2] (Table 2, M9G media); 16 ppm in test [2] (Table 2, TSB media); 0.5 ppm in test [3] (Table 2, M9G media); under 0.25 ppm in test [3] (Table 2, TSB media). Moreover, the MIC in test [4] (Table 2) is reported as 1 ppm.

Take `CCCCCCCCCCCCCCCC[N+]1(CC#CI)CCCC1` [Compound 32, 1-hexadecyl-1-(3-iodopropargy)-pyrrolidinium benzenesulfonate]: the MIC in test [1] (Table 2, M9G media) was 32 ppm; in test [1] (Table 2, TSB media) it was 125 ppm; in test [2] (Table 2, M9G media), 4 ppm; in test [2] (Table 2, TSB media) it was 16 ppm; in test [3] (Table 2, M9G media), under 0.25 ppm; in test [3] (Table 2, TSB media), under 0.25 ppm. Besides, the MIC in test [4] (Table 2) was under 0.25 ppm.

As for `CCCCCCCCCCCCCCC[N+]1(CC#CI)CCCC1` [Compound 33, 1-pentadecyl-1-(3-iodopropargyl)-pyrrolidinium benzenesulfonate], the MIC in test [1] (Table 2, M9G media) is listed as 8 ppm; in test [1] (Table 2, TSB media), 32 ppm; in test [2] (Table 2, M9G media), 1 ppm; in test [2] (Table 2, TSB media), 2 ppm; in test [3] (Table 2, M9G media), under 0.25 ppm; in test [3] (Table 2, TSB media), under 0.25 ppm. The MIC in test [4] (Table 2) was under 0.25 ppm.
